Reference: publication PMC4453552 (mBio, 2015)
Where two headings read alike, the source gives them in different places.

Columns and labels:
N-Flo1p [1] = molecular target: T1, N-Flo1p (Saccharomyces cerevisiae, UniProt P32768); test: AFM force spectroscopy of glycosylated N-Flo1p self-binding; conditions: Tris solution with 20 mM EDTA and 100 mM mannose
T1 sequence (P32768 25-271 limits assumed): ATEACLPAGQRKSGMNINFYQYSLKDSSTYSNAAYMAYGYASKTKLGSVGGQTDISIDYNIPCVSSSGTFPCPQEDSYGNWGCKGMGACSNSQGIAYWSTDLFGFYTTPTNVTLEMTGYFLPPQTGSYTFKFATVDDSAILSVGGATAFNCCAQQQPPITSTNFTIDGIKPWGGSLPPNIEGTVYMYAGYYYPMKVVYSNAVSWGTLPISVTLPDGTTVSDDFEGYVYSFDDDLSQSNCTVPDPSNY

N-Flo5p = conditions: cited from earlier work
N-Flo1p [2] = molecular target: T2, N-Flo1p (Saccharomyces cerevisiae, UniProt P32768); test: Fluorescence titration of carbohydrates with nonglycosylated N-Flo1p; assay type: binding
T2 sequence (P32768 23-271): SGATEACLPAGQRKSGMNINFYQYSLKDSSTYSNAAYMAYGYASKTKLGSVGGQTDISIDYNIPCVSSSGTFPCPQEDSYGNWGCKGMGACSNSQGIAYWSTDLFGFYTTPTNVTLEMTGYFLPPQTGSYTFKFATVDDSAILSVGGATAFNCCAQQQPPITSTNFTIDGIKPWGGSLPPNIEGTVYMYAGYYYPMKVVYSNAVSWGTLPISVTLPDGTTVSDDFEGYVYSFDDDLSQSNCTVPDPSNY

N-Lg-Flo1p [3] = molecular target: T3, N-Lg-Flo1p (Saccharomyces pastorianus, UniProt B3IUB3, P58Q); test: Fluorescence titration of carbohydrates with N-Lg-Flo1p; assay type: binding; conditions: construct from the CBS1513 strain
T3 sequence (B3IUB3 23-213 P58Q): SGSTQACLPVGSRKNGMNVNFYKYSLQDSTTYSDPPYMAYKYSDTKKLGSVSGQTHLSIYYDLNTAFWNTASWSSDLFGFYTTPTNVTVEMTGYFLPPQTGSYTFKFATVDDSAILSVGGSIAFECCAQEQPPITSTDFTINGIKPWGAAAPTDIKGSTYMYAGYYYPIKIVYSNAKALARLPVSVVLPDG

N-Lg-Flo1p [4] = molecular target: T3, N-Lg-Flo1p; conditions: cited from earlier work
N-Flo1p [5] = molecular target: T1, N-Flo1p; test: N-Flo1p self-binding by surface plasmon resonance; conditions: SPR, in the presence of Ca2+
[6] = read-out: Equilibrium dissociation constant (KD) N-Flo1p, fluorescence titration, nonglycosylated N-Flo1p, this work (footnote a)

With `O=C(O)CN(CCN(CC(=O)O)CC(=O)O)CC(=O)O` [EDTA] the “Effect on unbinding events of N-Flo1p self-binding” value (N-Flo1p [1]) was “longer-distance events disappeared almost completely”.

In the case of `OC[C@H]1OC(O)[C@H](O)[C@@H](O)[C@@H]1O` (some centres unmarked) [Glc, glucose], the “Binding to N-Flo5p, in words” value (N-Flo5p) is given as “very weakly” and the “Affinity / interaction with N-Flo1p, in words” value (shortened to “Affinity / interaction”) (N-Flo1p [2]; fluorescence titration) is given as “very weakly”.

In the case of `OC[C@H]1OC(O)[C@@H](O)[C@@H](O)[C@@H]1O` (stereo partly drawn) [M (Man), D-mannose], the Kd (N-Flo1p [2]) is reported as 8.7 ± 0.43 mM, the “Affinity / interaction” value (N-Flo1p [2]; fluorescence titration, listed as D-mannose) is reported as “low-millimolar range” and the “Affinity / interaction” value (N-Flo1p [2]; fluorescence titration, listed as mannose) is reported as “millimolar range”. For the same molecule, the “KD range for N-Lg-Flo1p, in words” value (N-Lg-Flo1p [3]) was “high micromolar range”.

For `OC[C@H]1O[C@H](O[C@@H]2C(O)O[C@H](CO)[C@@H](O)[C@@H]2O)[C@@H](O)[C@@H](O)[C@@H]1O` (stereo partly drawn) [Mα-1,2-M, α-1,2-mannobiose], the “Fold difference in binding between the mono- and disaccharides (N-Flo1p)” value (N-Flo1p [2]; α-1,2-mannobiose versus D-mannose) was 10 fold.

For `OC[C@H]1O[C@H](O[C@H]2[C@H](O)[C@@H](CO)OC(O)[C@H]2O)[C@@H](O)[C@@H](O)[C@@H]1O` (stereo partly drawn) [Mα-1,3-M, α-1,3-linked mannobiose], the “Binding to N-Flo5p, in words” value (N-Flo5p) is given as “No binding” and the Kd (N-Flo1p [2]; [6]) is given as 3.3 ± 0.34 mM.

In the case of `OC[C@H]1O[C@H](OC[C@H]2OC(O)[C@@H](O)[C@@H](O)[C@@H]2O)[C@@H](O)[C@@H](O)[C@@H]1O` (stereo partly drawn) [Mα-1,6-M, α-1,6-linked mannobiose], the “Binding to N-Flo5p, in words” value (N-Flo5p) is listed as “No binding” and the Kd (N-Flo1p [2]; [6]) is listed as 6.9 ± 0.64 mM.

For `O=P(O)(O)OC1O[C@H](CO)[C@@H](O)[C@H](O)[C@@H]1O` (some centres unmarked) [mannose-1-phosphate], the “Affinity for N-Lg-Flo1p, in words” value (N-Lg-Flo1p [4]) is given as “micromolar-affinity”.

B1: N-deglycosylated N-Flo1p: N-Flo1p after removal of the N-glycans with endo-β-N-acetylglucosaminidase H (protein)
chain: T2 sequence (P32768 23-271)
modifications: N-glycans removed with EndoH (GlcNAc residues remain); O-glycans (5 or 6 mannoses) present
For B1, the “Binding of N-deglycosylated N-Flo1p to immobilized N-deglycosylated N-Flo1p” value (N-Flo1p [5]) was “almost no binding”.
